The subject of assay [1] is HeLa. Briefly: Anticancer activity against human HeLa cells assessed as absence of normal spindle shape incubated at 0.098uM for 72 hrs by phase contrast inverted microscopic analysis. It is filed as functional, cell-based.
Assay [2] concerns HeLa. Briefly: Anticancer activity against human HeLa cells assessed as cell shrinkage incubated at 0.098uM for 72 hrs by phase contrast inverted microscopic analysis. It is filed as functional, cell-based.
Assay [3] relates to HepG2. Briefly: Anticancer activity against human HepG2 cells assessed as cell shrinkage incubated at 0.098uM for 72 hrs by phase contrast inverted microscopic analysis. Format: functional, cell-based.
Assay [4] concerns HeLa. Briefly: Anticancer activity against human HeLa cells assessed as smaller cells incubated at 0.098uM for 72 hrs by phase contrast inverted microscopic analysis. Format: functional, cell-based.
Assay [5] has as its system MCF7. Briefly: Induction of apoptosis in human MCF7 cells assessed as late apoptotic cells by measuring orange to red patch incubated at 0.098 uM for 72 hrs by acridine orange-ethidium bromide dual staining based fluorescence microscopic analysis. It is filed as functional, cell-based.
Assay [6] relates to HepG2. Briefly: Induction of apoptosis in human HepG2 cells assessed as late apoptotic cells incubated at 0.098 uM for 72 hrs by annexin V-FITC based propidium iodide dual staining assay (reference value: 0.66%). Format: functional.
Assay [7] deals with HeLa. Briefly: Anticancer activity against human HeLa cells assessed as losing contact with neighbouring cells incubated at 0.098uM for 72 hrs by phase contrast inverted microscopic analysis. Format: functional, cell-based.
Assay [8] has as its system Caco-2. Briefly: Anticancer activity against human Caco-2 cells assessed as round cells incubated at 0.098uM for 72 hrs by phase contrast inverted microscopic analysis. Format: functional, cell-based.
Assay [9] deals with MCF7. Briefly: Induction of apoptosis in human MCF7 cells assessed as early apoptotic cells incubated at 0.098 uM for 72 hrs by annexin V-FITC based propidium iodide dual staining assay (reference value: 0.06%). Format: functional.
In assay [10] the test system is MCF7. Briefly: Induction of apoptosis in human MCF7 cells assessed as early apoptotic cells by measuring bright green patch incubated at 0.11 uM for 72 hrs by acridine orange-ethidium bromide dual staining based fluorescence microscopic analysis. Format: functional, cell-based.
Assay [11] has as its system Calf thymus DNA. Briefly: Induction of calf thymus DNA damage assessed as disrupted by DNA by measuring decrease in fluorescence intensity by EvaGreen based fluorescence plate reader analysis. It is filed as nucleic-acid assay. The following applies: Bos taurus; dose <= 500.0 µM.
The subject of assay [12] is Caco-2. Briefly: Anticancer activity against human Caco-2 cells assessed as absence of normal spindle shape incubated at 0.11 uM for 72 hrs by phase contrast inverted microscopic analysis. Format: functional, cell-based.
Assay [13] has as its system HepG2. Briefly: Anticancer activity against human HepG2 cells assessed as absence of normal spindle shape incubated at 0.11 uM for 72 hrs by phase contrast inverted microscopic analysis. Format: functional, cell-based.
Assay [14] deals with Caco-2. Briefly: Induction of apoptosis in human Caco-2 cells assessed as caspase3/7 activation at 0.11 uM using caspase-glo 3/7 as substrate relative to control. Format: functional.
For assay [15], the system named is Calf thymus DNA. Briefly: Induction of calf thymus DNA damage assessed as disrupted by DNA by measuring decrease in fluorescence intensity at 200 uM by EvaGreen based fluorescence plate reader analysis. The following applies: Bos taurus. It is filed as nucleic-acid assay.
Assay [16] has as its system dsDNA. Briefly: Induction of damage in dsDNA (unknown origin) assessed as instantaneous DNA disruption by measuring decrease in fluorescence intensity at 100 uM incubated upto 160 mins by EvaGreen based fluorescence plate reader analysis. It is filed as nucleic-acid assay.
Assay [17] concerns MCF7. Briefly: Induction of apoptosis in human MCF7 cells assessed as total apoptotic cells incubated at 0.11 uM for 72 hrs by annexin V-FITC based propidium iodide dual staining assay (reference value: 0.04 %). Format: functional.
The test system of assay [18] is MCF7. Briefly: Induction of apoptosis in human MCF7 cells assessed as late apoptotic cells incubated at 0.11 uM for 72 hrs by annexin V-FITC based propidium iodide dual staining assay (reference value: 0.01%). Format: functional.
The test system of assay [19] is Caco-2. Briefly: Induction of oxidative stress in human Caco-2 cells assessed as cell death by measuring redox alteration fluorescence incubated at 0.11 uM for 72 hrs in presence of dihydro dichlorofluorescein diacetate by DCFH-DA based flow cytometric analysis relative to control. Format: functional.
Assay [20] concerns MCF7. Briefly: Induction of apoptosis in human MCF7 cells assessed as necrotic cells incubated at 0.11 uM for 72 hrs by annexin V-FITC based propidium iodide dual staining assay (reference value: 0.03%). Format: functional.
The test system of assay [21] is MCF7. Briefly: Induction of oxidative stress in human MCF7 cells assessed as cell death by measuring redox alteration fluorescence incubated at 0.097 uM for 72 hrs in presence of dihydro dichlorofluorescein diacetate by DCFH-DA based flow cytometric analysis relative to control. Format: functional. Background: A flow cytometer gives signals particle by particle.

The test system of assay [22] is HeLa. Briefly: Anticancer activity against human HeLa cells assessed as cell shrinkage incubated at 0.11 uM for 72 hrs by phase contrast inverted microscopic analysis. Format: functional, cell-based.
The test system of assay [23] is dsDNA. Briefly: Induction of damage in dsDNA (unknown origin) assessed as disrupted by DNA by measuring decrease in fluorescence intensity at 100 uM incubated for 50 mins by EvaGreen based fluorescence plate reader analysis. It is filed as nucleic-acid assay.
The subject of assay [24] is Caco-2. Briefly: Induction of apoptosis in human Caco-2 cells assessed as early apoptotic cells incubated at 0.11 uM for 72 hrs by annexin V-FITC based propidium iodide dual staining assay (reference value: 0.07%). It is filed as functional.
The subject of assay [25] is Caco-2. Briefly: Induction of apoptosis in human Caco-2 cells assessed as necrotic cells incubated at 0.017 uM for 72 hrs by annexin V-FITC based propidium iodide dual staining assay (reference value: 0.02%). It is filed as functional.
The test system of assay [26] is HepG2. Briefly: Induction of apoptosis in human HepG2 cells assessed as viable cells incubated at 0.017 uM for 72 hrs by annexin V-FITC based propidium iodide dual staining assay (reference value: 97.27%). The following applies: read-out: Activity. It is filed as functional.
In assay [27] the test system is Caco-2. Briefly: Induction of oxidative stress in human Caco-2 cells assessed as cell death by measuring redox alteration fluorescence incubated at 0.097 uM for 72 hrs in presence of dihydro dichlorofluorescein diacetate by DCFH-DA based flow cytometric analysis relative to control. Format: functional.
The test system of assay [28] is MCF7. Briefly: Induction of apoptosis in human MCF7 cells assessed as caspase3/7 activation at 0.017 uM using caspase-glo 3/7 as substrate relative to control. It is filed as functional.
Assay [29] relates to HeLa. Briefly: Induction of apoptosis in human HeLa cells assessed as necrotic cells incubated at 0.017 uM for 72 hrs by annexin V-FITC based propidium iodide dual staining assay (reference value: 0%). It is filed as functional.
The subject of assay [30] is HeLa. Briefly: Induction of apoptosis in human HeLa cells assessed as late apoptotic cells incubated at 0.017 uM for 72 hrs by annexin V-FITC based propidium iodide dual staining assay (reference value: 0%). Format: functional.
Assay [31] concerns HeLa. Briefly: Induction of apoptosis in human HeLa cells assessed as early apoptotic cells by measuring bright green patch incubated at 0.097 uM for 72 hrs by acridine orange-ethidium bromide dual staining based fluorescence microscopic analysis. It is filed as functional, cell-based.
Assay [32] deals with HeLa. Briefly: Induction of apoptosis in human HeLa cells assessed as viable cells incubated at 0.097 uM for 72 hrs by annexin V-FITC based propidium iodide dual staining assay (reference value: 97.23%). Format: functional. The following applies: read-out: Activity.
Assay [33] has as its system HepG2. Briefly: Induction of apoptosis in human HepG2 cells assessed as early apoptotic cells by measuring bright green patch incubated at 0.097 uM for 72 hrs by acridine orange-ethidium bromide dual staining based fluorescence microscopic analysis. Format: functional, cell-based.
Assay [34] has as its system HepG2. Briefly: Anticancer activity against human HepG2 cells assessed as losing contact with neighbouring cells incubated at 0.097uM for 72 hrs by phase contrast inverted microscopic analysis. Format: functional, cell-based.
For assay [35], the system named is HeLa. Briefly: Induction of oxidative stress in human HeLa cells assessed as cell death by measuring redox alteration fluorescence incubated at 0.097 uM for 72 hrs in presence of dihydro dichlorofluorescein diacetate by DCFH-DA based flow cytometric analysis relative to control. Format: functional.

The source made the active and inactive calls. No cut-off for these calls is given here.

From ChEMBL document CHEMBL5380816, “Inclusion of Nitrofurantoin into the Realm of Cancer Chemotherapy via Biology-Oriented Synthesis and Drug Repurposing” (J Med Chem, 2023) come the findings set out here.

For `O=C(CN1C(=O)CN(/N=C/c2ccc([N+](=O)[O-])o2)C1=O)c1ccc(Cl)cc1`, the result with HeLa [1], in the assay on HeLa [2], in the assay with HepG2 [3], with HeLa [4], in the assay with MCF7 [5] and with HeLa [7] was Active. Besides, the result in the assay on Caco-2 [8] was Active. Besides, the Activity with HepG2 [6] stood at 34.89%; with MCF7 [9], 4.77%.
`C#CCN1C(=O)CN(/N=C/c2ccc([N+](=O)[O-])o2)C1=O`: the result in the assay on MCF7 [10], in the assay on Caco-2 [12], with HepG2 [13], with Calf thymus DNA [15], in the assay on dsDNA [16] and in the assay on HeLa [22] was Active. The outcome in the assay on dsDNA [23] was Active. Further, the Activity result is “Dose-Dependent Effect” in the assay with Calf thymus DNA [11]; 55% in the assay on Caco-2 [14]; 38.72% in the assay with MCF7 [17]; 34.7% with MCF7 [18]; 45.56% in the assay with Caco-2 [19]; 4.01% in the assay with MCF7 [20]. In addition, the values for the Activity with MCF7 [21] and in the assay on Caco-2 [24] were 35.5% and 4.84%, respectively.
In the case of `O=c1[nH]cc(F)c(=O)[nH]1` [FLUOROURACIL], the Activity in the assay with Caco-2 [25] amounted to 0.97%; with Caco-2 [27], 4.78%; in the assay on MCF7 [28], 12%; in the assay on HeLa [29] it was 0.89%; with HeLa [30] it was 3.4%. The viability at 0.017 µM with HepG2 [26] is 88.4%.
Take `NS(=O)(=O)c1ccc(-n2cc(CN3C(=O)CN(/N=C/c4ccc([N+](=O)[O-])o4)C3=O)nn2)cc1`: the outcome in the assay on HeLa [31], in the assay on HepG2 [33] and in the assay on HepG2 [34] was Active. Further, in the assay with HeLa [32], the viability at 0.097 µM is 43.3%. For the same compound, the Activity in the assay on HeLa [35] is 53.5%.
